Reference: patent publication US9808003B2, “Herbicidally active 2-(substituted-phenyl)-cyclopentane-1,3-dione compounds and derivatives thereof” (Syngenta Limited, priority 2013, dated 2017)
Where two headings read alike, the source gives them in different places.

Tests used:
Type in all cases: in vivo
[1] = system: Lolium multiflorum (LOLMU); assay: Test 1B glasshouse assay, post-emergence herbicidal activity against grassy weeds; details: 14 DAA
Summary of the method: (§1)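 Percent phytotoxicity (0–100%, 1% steps) was scored visually 14 days after spraying, as the mean of duplicates. Plants grown 14 days under glasshouse control received the herbicide post-emergence, typically 60–120 g/ha with or without 50 g/ha cloquintocet-mexyl safener, in spray containing 0.5% v/v Adigor.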

Setaria viridis (SETVI) = assay: as above; details: 14 DAA
Summary of the method: as §1

Poa annua (POAAN) = assay: as above; details: 14 DAA
Summary of the method: as §1

Avena fatua (AVEFA) [2] = assay: as above; details: 14 DAA
Summary of the method: as §1

[3] = system: Alopecurus myosuroides (ALOMY); assay: as above; details: 14 DAA
Summary of the method: as §1

Winter Wheat “Hereward” = assay: Test 1B glasshouse assay, post-emergence herbicidal activity against cereal crops; details: 14 DAA
Summary of the method: (§2)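 Technical compound in IF50 with acetone, diluted into 0.5% v/v Adigor, sprayed post-emergence on 14-day glasshouse plants (22/16 °C, 16 h light, 65% humidity), typically at 60, 90 or 120 g/ha, with or without 50 g/ha cloquintocet-mexyl safener. Phytotoxicity scored visually 14 DAA (0–100%), mean of two replicates.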

Winter Barley “Suzuka” = assay: as above; details: 14 DAA
Summary of the method: as §2

[4] = system: Spring Barley “Harrington”; assay: as above; details: 14 DAA
Summary of the method: as §2

Spring Wheat “Teal” = assay: as above; details: 14 DAA
Summary of the method: as §2

Avena fatua (AVEFA) [5] = assay: Test 1A glasshouse assay, pre-emergence herbicidal activity; details: 312 h, read-out: Pre-emergence herbicidal activity (% phytotoxicity) AVEFA
Procedure: (§3) Seeds of a variety of test species were sown in standard soil in pots. After cultivation for one day (pre-emergence) or after 8 days cultivation (post-emergence) under controlled conditions in a glasshouse (at 24/16° C., day/night; 14 hours light; 65% humidity), the plants were sprayed with an aqueous spray solution derived from the formulation of the technical active ingredient in acetone/water (50:50) solution containing 0.5% Tween 20 (polyoxyethelyene sorbitan monolaurate, CAS RN 9005-64-5). The test plants were then grown under controlled conditions in a glasshouse (at 24/16° C., day/night; 14 hours light; 65% humidity) and watered twice daily. 13 days after application of the test herbicide, for pre- and post-emergence, the test was evaluated visually for percentage phytotoxicity to the plant (where 100%=total damage to plant; 0%=no damage to plant).
(§4) Test plants: Lolium perenne (LOLPE), Alopecurus myosuroides (ALOMY), Echinochloa crus-galli (ECHCG), and Avena fatua (AVEFA); these are all grassy monocotyledonous weeds.

[6] = system: Alopecurus myosuroides (ALOMY); assay: as above; details: 312 h, read-out: Pre-emergence herbicidal activity (% phytotoxicity) ALOMY
Procedure: as §3, §4

[7] = system: Echinochloa crus-galli (ECHCG); assay: as above; details: 312 h, read-out: Pre-emergence herbicidal activity (% phytotoxicity) ECHCG
Procedure: as §3, §4

Lolium perenne (LOLPE) [8] = assay: as above; details: 312 h, read-out: Pre-emergence herbicidal activity (% phytotoxicity) LOLPE
Procedure: as §3, §4

Avena fatua (AVEFA) [9] = assay: Test 1A glasshouse assay, post-emergence herbicidal activity; details: Avena fatua, 312 h, read-out: Post-emergence Herbicidal Activity (% Phytotoxicity) AVEFA
Summary of the method: (§5)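 Pots sown in standard soil; plants grown 8 days in glasshouse (24/16 °C day/night, 14 h light, 65% humidity), then sprayed with compound formulated in acetone/water (50:50) with 0.5% Tween 20. Regrown under same conditions, watered twice daily; visual % phytotoxicity scored 13 days after application (0 = none, 100 = total damage).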

[10] = system: Alopecurus myosuroides (ALOMY); assay: as above; details: Alopecurus myosuroides, 312 h, read-out: Post-emergence Herbicidal Activity (% Phytotoxicity) ALOMY
Summary of the method: as §5

[11] = system: Echinochloa crus-galli (ECHCG); assay: as above; details: Echinochloa crus-galli, 312 h, read-out: Post-emergence Herbicidal Activity (% Phytotoxicity) ECHCG
Summary of the method: as §5

Lolium perenne (LOLPE) [12] = assay: as above; details: Lolium perenne, 312 h, read-out: Post-emergence Herbicidal Activity (% Phytotoxicity) LOLPE
Summary of the method: as §5

[13] = 60 g/ha herbicide, 0 g/ha cloquintocet-mexyl
[14] = 60 g/ha herbicide, 50 g/ha cloquintocet-mexyl
[15] = 250 g/ha, 13 days after application
[16] = application rate 250 g/ha, 13 days after application, visual (100%=total damage; 0%=no damage)
[17] = 30 g/ha herbicide, 50 g/ha cloquintocet-mexyl

| SMILES | Post-emergence herbicidal activity, percentage phytotoxicity, LOLMU [1, 13] | Post-emergence herbicidal activity, percentage phytotoxicity, LOLMU [1, 14] | Post-emergence herbicidal activity, percentage phytotoxicity, SETVI (Setaria viridis (SETVI); [13]) | Post-emergence herbicidal activity, percentage phytotoxicity, SETVI (Setaria viridis (SETVI); [14]) | Post-emergence herbicidal activity, percentage phytotoxicity, POAAN (Poa annua (POAAN); [13]) | Post-emergence herbicidal activity, percentage phytotoxicity, POAAN (Poa annua (POAAN); [14]) | Post-emergence herbicidal activity, percentage phytotoxicity, AVEFA (Avena fatua (AVEFA) [2]; [13]) | Post-emergence herbicidal activity, percentage phytotoxicity, AVEFA (Avena fatua (AVEFA) [2]; [14]) | Post-emergence herbicidal activity, percentage phytotoxicity, ALOMY [3, 13] | Post-emergence herbicidal activity, percentage phytotoxicity, ALOMY [3, 14] | Post-emergence herbicidal activity against cereal crops, percentage phytotoxicity, Winter Wheat “Hereward” (Winter Wheat “Hereward”; [13]) | Post-emergence herbicidal activity against cereal crops, percentage phytotoxicity, Winter Wheat “Hereward” (Winter Wheat “Hereward”; [14]) | inhibition at 250 g/ha (Avena fatua (AVEFA) [5]; [15]) | inhibition at 250 g/ha [6, 15] | inhibition at 250 g/ha [7, 15] | inhibition at 250 g/ha (Lolium perenne (LOLPE) [8]; [15]) | pest or weed control at 250 g/ha (Avena fatua (AVEFA) [9]; [16]) | pest or weed control at 250 g/ha [10, 16] | pest or weed control at 250 g/ha [11, 16] | pest or weed control at 250 g/ha (Lolium perenne (LOLPE) [12]; [16]) | other results |
| --- | --- | --- | --- | --- | --- | --- | --- | --- | --- | --- | --- | --- | --- | --- | --- | --- | --- | --- | --- | --- | --- |
| Cc1cc(-n2cc(Cl)cn2)cc(C)c1C1C(=O)CC(CCNC(=O)c2ccccn2)C1=O (racemic) [Compound A34, N-[2-[3-[4-(4-chloropyrazol-1-yl)-2,6-dimethyl-phenyl]-2,4-dioxo-cyclopentyl]ethyl]pyridine-2-carboxamide] | 83% | 90% | 80% | 85% | 78% | 75% | 100% | 100% | 65% | 73% | 20% | 5% |  |  |  |  |  |  |  |  | Post-emergence herbicidal activity against cereal crops, percentage phytotoxicity, Winter Barley “Suzuka” (Winter Barley “Suzuka”; [13]): 83%; Post-emergence herbicidal activity against cereal crops, percentage phytotoxicity, Winter Barley “Suzuka” (Winter Barley “Suzuka”; [14]): 38%; Post-emergence herbicidal activity against cereal crops, percentage phytotoxicity, Spring Barley “Harrington” [4, 13]: 83%; Post-emergence herbicidal activity against cereal crops, percentage phytotoxicity, Spring Barley “Harrington” [4, 14]: 33%; Post-emergence herbicidal activity against cereal crops, percentage phytotoxicity, Spring Wheat “Teal” (Spring Wheat “Teal”; [13]): 43%; Post-emergence herbicidal activity against cereal crops, percentage phytotoxicity, Spring Wheat “Teal” (Spring Wheat “Teal”; [14]): 10%; inhibition at 250 g/ha (Avena fatua (AVEFA) [5]): 100%; inhibition at 250 g/ha [6]: 90%; inhibition at 250 g/ha [7]: 100%; inhibition at 250 g/ha (Lolium perenne (LOLPE) [8]): 100%; pest or weed control at 250 g/ha (Avena fatua (AVEFA) [9]): 100%; pest or weed control at 250 g/ha [10]: 90%; pest or weed control at 250 g/ha [11]: 100%; pest or weed control at 250 g/ha (Lolium perenne (LOLPE) [12]): 100% |
| CC#Cc1cc(C)c(C2C(=O)CC(CCNC(=O)c3ccccn3)C2=O)c(C)c1 (stereo not shown) [Compound A33] |  |  |  |  |  |  |  |  |  |  |  |  | 80% | 90% | 100% | 100% | 100% | 90% | 100% | 100% |  |
| CCc1cc(-n2cc(Cl)cn2)cc(C)c1C1C(=O)CC(CCNC(=O)c2ccccn2)C1=O (stereo not shown) [Compound A87, N-[2-[3-[4-(4-chloropyrazol-1-yl)-2-ethyl-6-methyl-phenyl]-2,4-dioxo-cyclopentyl]ethyl]pyridine-2-carboxamide] | 100% | 100% | 93% | 95% | 83% | 83% | 100% | 100% | 97% | 95% | 43% | 33% | 90% | 100% | 100% | 100% | 100% | 100% | 100% | 100% | Post-emergence herbicidal activity, percentage phytotoxicity, LOLMU [1, 17]: 100%; Post-emergence herbicidal activity, percentage phytotoxicity, SETVI (Setaria viridis (SETVI); [17]): 73%; Post-emergence herbicidal activity, percentage phytotoxicity, POAAN (Poa annua (POAAN); [17]): 75%; Post-emergence herbicidal activity, percentage phytotoxicity, AVEFA (Avena fatua (AVEFA) [2]; [17]): 100%; Post-emergence herbicidal activity, percentage phytotoxicity, ALOMY [3, 17]: 70%; Post-emergence herbicidal activity against cereal crops, percentage phytotoxicity, Winter Wheat “Hereward” (Winter Wheat “Hereward”; [17]): 23%; Post-emergence herbicidal activity against cereal crops, percentage phytotoxicity, Winter Barley “Suzuka” (Winter Barley “Suzuka”; [17]): 3%; Post-emergence herbicidal activity against cereal crops, percentage phytotoxicity, Winter Barley “Suzuka” (Winter Barley “Suzuka”; [13]): 83%; Post-emergence herbicidal activity against cereal crops, percentage phytotoxicity, Winter Barley “Suzuka” (Winter Barley “Suzuka”; [14]): 60%; Post-emergence herbicidal activity against cereal crops, percentage phytotoxicity, Spring Barley “Harrington” [4, 17]: 0%; Post-emergence herbicidal activity against cereal crops, percentage phytotoxicity, Spring Barley “Harrington” [4, 13]: 73%; Post-emergence herbicidal activity against cereal crops, percentage phytotoxicity, Spring Barley “Harrington” [4, 14]: 60%; Post-emergence herbicidal activity against cereal crops, percentage phytotoxicity, Spring Wheat “Teal” (Spring Wheat “Teal”; [17]): 18%; Post-emergence herbicidal activity against cereal crops, percentage phytotoxicity, Spring Wheat “Teal” (Spring Wheat “Teal”; [13]): 48%; Post-emergence herbicidal activity against cereal crops, percentage phytotoxicity, Spring Wheat “Teal” (Spring Wheat “Teal”; [14]): 38% |
| Cc1cc(C)c(C2C(=O)CC(CCNC(=O)c3c(Cl)c(C)nn3C)C2=O)c(C)c1 (stereo not shown) [Compound A145] |  |  |  |  |  |  |  |  |  |  |  |  | 40% | 90% | 90% | 100% | 90% | 100% | 90% | 90% |  |
| Cc1cc(C)c(C2C(=O)CC(CCNC(=O)c3c(Cl)nn(C)c3Cl)C2=O)c(C)c1 (stereo not shown) [Compound A159] |  |  |  |  |  |  |  |  |  |  |  |  | 80% | 90% | 100% | 100% | 90% | 100% | 90% | 100% |  |
